Data taken from paper PMC8333425, “Discovery of a dual Ras and ARF6 inhibitor from a GPCR endocytosis screen” (Nature Communications, 2021).

Key:
Test in all cases: KINOMEscan kinase binding assay
[1] = target: T1, 384 kinases from the human genome (Homo sapiens, UniProt Q9H2X6); settings: kinase HIPK2 (Entrez HIPK2)
T1 construct: purchased Eurofin/DiscoverX
Excerpt: (§1) We reasoned that because internalizing AT1R and its targeting to intracellular compartments can support continued MAPK signaling, and since 21 inhibits receptor internalization, it should also impede to some extent ERK1/2 activation. […] Receptor-mediated ERK1/2 signaling can involve upstream kinases such as PKC, BRAF, and MEK1[35],[36]. […] To exclude other kinases potentially involved in ERK1/2 and Akt activation as targets of 21, we ran a kinase binding assay (KINOMEscan™) on 384 kinases from the human genome. Remarkably, a very high selectivity score S(10) of 0.008 was found (Supplementary Data 3).
(§2) The chemical library used for initial screening was from Chembridge DiverSet™ (60,000 compounds), Maybridge HitFinder™ (16,000 compounds), Maybridge (selected, 16,000 compounds), SPECS (selected, 16000 compounds), Microsource Discovery Spectrum (2000 compounds), Biomol (natural products, 500 compounds), Prestwick (commercialized products, 1120 compounds), SIGMA LopacTM (1280 compounds) and internal collection (synthesized at Université de Montréal-IRIC, ~4000 compounds). Compounds were all assigned an Université de Montréal number (UM) for internal use. Screen was performed at IRIC HTS facility. KINOMEscan™ profiling was serviced by Eurofin/DiscoverX (San Diego, USA).
(§3) Description of Additional Supplementary Files […]
(§4) File Name: Supplementary Data 3
(§5) Description: KINOMEscan results. Compound 21’s effect was tested on 384 kinases. Data represent kinases binding to their ligands in presence of 10 µM of 21, as compared to DMSO (100%). Results are from one experiment and represent the average of duplicates. Three kinases (FLT3, KIT, and PDGFRB) out of 384 were more than 90% affected (selectivity score S(10) of 0.008). […]

[2] = target: T2, 384 kinases from the human genome (Homo sapiens, UniProt P36507); settings: kinase MEK2 (Entrez MAP2K2)
T2 construct: purchased Eurofin/DiscoverX
Excerpt: as §1, §2, §3, §4, §5

[3] = target: T3, 384 kinases from the human genome (Homo sapiens, UniProt Q99558); settings: kinase NIK (Entrez MAP3K14)
T3 construct: purchased Eurofin/DiscoverX
Excerpt: as §1, §2, §3, §4, §5

[4] = target: T4, 384 kinases from the human genome (Homo sapiens, UniProt P27037); settings: kinase ACVR2A (Entrez ACVR2A)
T4 construct: purchased Eurofin/DiscoverX
Excerpt: as §1, §2, §3, §4, §5

[5] = target: T5, 384 kinases from the human genome (Homo sapiens, UniProt O14578); settings: kinase CIT (Entrez CIT)
T5 construct: purchased Eurofin/DiscoverX
Excerpt: as §1, §2, §3, §4, §5

[6] = target: T6, 384 kinases from the human genome (Homo sapiens, UniProt P11362); settings: kinase FGFR1 (Entrez FGFR1)
T6 construct: purchased Eurofin/DiscoverX
Excerpt: as §1, §2, §3, §4, §5

[7] = target: T7, 384 kinases from the human genome (Homo sapiens, UniProt P28482); settings: kinase ERK2 (Entrez MAPK1)
T7 construct: purchased Eurofin/DiscoverX
Excerpt: as §1, §2, §3, §4, §5

[8] = target: T8, 384 kinases from the human genome (Homo sapiens, UniProt P17948); settings: kinase FLT1 (Entrez FLT1)
T8 construct: purchased Eurofin/DiscoverX
Excerpt: as §1, §2, §3, §4, §5

[9] = target: T9, 384 kinases from the human genome (Homo sapiens, UniProt P53671); settings: kinase LIMK2 (Entrez LIMK2)
T9 construct: purchased Eurofin/DiscoverX
Excerpt: as §1, §2, §3, §4, §5

[10] = target: T10, 384 kinases from the human genome (Homo sapiens, UniProt Q16816); settings: kinase PHKG1 (Entrez PHKG1)
T10 construct: purchased Eurofin/DiscoverX
Excerpt: as §1, §2, §3, §4, §5

[11] = target: T11, 384 kinases from the human genome (Homo sapiens, UniProt Q9BQI3); settings: kinase EIF2AK1 (Entrez EIF2AK1)
T11 construct: purchased Eurofin/DiscoverX
T11 sequence (Q9BQI3 whole entry): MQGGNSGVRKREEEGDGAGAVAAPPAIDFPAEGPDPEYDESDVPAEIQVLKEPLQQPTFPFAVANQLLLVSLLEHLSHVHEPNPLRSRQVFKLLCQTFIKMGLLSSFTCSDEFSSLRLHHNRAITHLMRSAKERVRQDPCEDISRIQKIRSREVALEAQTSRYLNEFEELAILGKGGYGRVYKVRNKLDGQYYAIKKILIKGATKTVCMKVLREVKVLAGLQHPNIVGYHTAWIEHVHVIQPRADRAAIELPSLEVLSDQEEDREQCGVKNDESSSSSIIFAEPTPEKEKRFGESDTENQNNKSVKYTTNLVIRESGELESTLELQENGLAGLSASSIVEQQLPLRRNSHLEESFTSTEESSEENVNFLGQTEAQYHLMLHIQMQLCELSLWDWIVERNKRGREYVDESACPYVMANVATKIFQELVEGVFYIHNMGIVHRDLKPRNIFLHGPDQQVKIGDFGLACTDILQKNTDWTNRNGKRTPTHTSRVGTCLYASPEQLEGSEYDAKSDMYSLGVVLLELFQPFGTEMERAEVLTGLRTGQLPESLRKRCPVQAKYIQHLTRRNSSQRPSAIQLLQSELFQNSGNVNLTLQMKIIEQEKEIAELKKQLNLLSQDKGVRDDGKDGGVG
Excerpt: as §1, §2, §3, §4, §5

[12] = target: T12, 384 kinases from the human genome (Homo sapiens, UniProt Q86Z02); settings: kinase HIPK1 (Entrez HIPK1)
T12 construct: purchased Eurofin/DiscoverX
Excerpt: as §1, §2, §3, §4, §5

[13] = target: T13, 384 kinases from the human genome (Homo sapiens, UniProt Q9Y2U5); settings: kinase MAP3K2 (Entrez MAP3K2)
T13 construct: purchased Eurofin/DiscoverX
Excerpt: as §1, §2, §3, §4, §5

[14] = target: T14, 384 kinases from the human genome (Homo sapiens, UniProt O14920); settings: kinase IKK-beta (Entrez IKBKB)
T14 construct: purchased Eurofin/DiscoverX
T14 sequence (O14920 whole entry): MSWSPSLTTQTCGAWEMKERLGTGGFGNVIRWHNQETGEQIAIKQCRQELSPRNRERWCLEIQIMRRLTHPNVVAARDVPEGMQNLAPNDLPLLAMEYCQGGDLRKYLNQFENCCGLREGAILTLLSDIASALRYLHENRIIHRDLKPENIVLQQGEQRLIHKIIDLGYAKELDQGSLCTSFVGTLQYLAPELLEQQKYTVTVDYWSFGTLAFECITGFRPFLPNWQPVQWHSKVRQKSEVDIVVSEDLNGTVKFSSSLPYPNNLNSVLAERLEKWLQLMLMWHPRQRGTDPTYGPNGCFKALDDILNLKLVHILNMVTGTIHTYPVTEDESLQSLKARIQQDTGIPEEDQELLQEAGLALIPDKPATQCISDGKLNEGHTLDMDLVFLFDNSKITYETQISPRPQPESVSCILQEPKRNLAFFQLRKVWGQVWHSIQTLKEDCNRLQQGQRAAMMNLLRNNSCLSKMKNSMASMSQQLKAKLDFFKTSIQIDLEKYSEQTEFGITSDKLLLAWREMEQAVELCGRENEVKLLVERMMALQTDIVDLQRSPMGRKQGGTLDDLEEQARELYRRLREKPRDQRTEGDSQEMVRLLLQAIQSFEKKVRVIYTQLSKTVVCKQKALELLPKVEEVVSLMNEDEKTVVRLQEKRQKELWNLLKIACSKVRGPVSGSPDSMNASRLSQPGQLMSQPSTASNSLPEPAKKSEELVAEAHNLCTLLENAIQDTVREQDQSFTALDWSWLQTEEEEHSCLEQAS
Excerpt: as §1, §2, §3, §4, §5

[15] = target: T15, 384 kinases from the human genome (Homo sapiens, UniProt Q9Y6E0); settings: kinase MST3 (Entrez STK24)
T15 construct: purchased Eurofin/DiscoverX
Excerpt: as §1, §2, §3, §4, §5

[16] = target: T16, 384 kinases from the human genome (Homo sapiens, UniProt Q13523); settings: kinase PRP4 (Entrez PRPF4B)
T16 construct: purchased Eurofin/DiscoverX
T16 sequence (Q13523 whole entry): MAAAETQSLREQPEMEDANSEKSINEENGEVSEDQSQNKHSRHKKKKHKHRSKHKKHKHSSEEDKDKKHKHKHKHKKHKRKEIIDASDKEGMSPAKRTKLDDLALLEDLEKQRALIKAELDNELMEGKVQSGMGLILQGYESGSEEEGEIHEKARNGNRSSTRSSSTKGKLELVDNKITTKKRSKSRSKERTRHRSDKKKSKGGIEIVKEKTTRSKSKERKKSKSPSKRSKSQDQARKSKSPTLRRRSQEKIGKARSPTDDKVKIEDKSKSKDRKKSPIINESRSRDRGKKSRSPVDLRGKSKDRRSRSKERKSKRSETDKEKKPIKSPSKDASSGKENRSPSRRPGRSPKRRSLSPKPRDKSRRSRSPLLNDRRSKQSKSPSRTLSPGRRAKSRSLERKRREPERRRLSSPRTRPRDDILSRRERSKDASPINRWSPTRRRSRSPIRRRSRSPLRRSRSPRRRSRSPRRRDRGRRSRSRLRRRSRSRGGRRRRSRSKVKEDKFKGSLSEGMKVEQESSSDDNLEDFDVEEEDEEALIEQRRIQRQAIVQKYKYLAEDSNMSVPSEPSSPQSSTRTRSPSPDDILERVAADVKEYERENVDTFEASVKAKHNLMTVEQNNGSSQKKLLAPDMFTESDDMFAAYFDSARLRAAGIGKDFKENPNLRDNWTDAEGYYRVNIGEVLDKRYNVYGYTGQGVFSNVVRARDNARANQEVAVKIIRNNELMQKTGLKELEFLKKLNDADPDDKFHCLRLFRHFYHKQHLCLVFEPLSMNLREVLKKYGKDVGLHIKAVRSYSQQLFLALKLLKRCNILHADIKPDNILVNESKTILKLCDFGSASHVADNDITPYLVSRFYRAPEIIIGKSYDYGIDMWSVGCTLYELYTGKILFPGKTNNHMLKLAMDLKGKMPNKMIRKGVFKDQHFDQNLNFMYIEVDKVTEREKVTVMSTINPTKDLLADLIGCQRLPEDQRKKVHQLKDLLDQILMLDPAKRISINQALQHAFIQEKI
Excerpt: as §1, §2, §3, §4, §5

[17] = target: T17, 384 kinases from the human genome (Homo sapiens, UniProt Q8TBX8); settings: kinase PIP5K2C (Entrez PIP4K2C)
T17 construct: purchased Eurofin/DiscoverX
T17 sequence (Q8TBX8 whole entry): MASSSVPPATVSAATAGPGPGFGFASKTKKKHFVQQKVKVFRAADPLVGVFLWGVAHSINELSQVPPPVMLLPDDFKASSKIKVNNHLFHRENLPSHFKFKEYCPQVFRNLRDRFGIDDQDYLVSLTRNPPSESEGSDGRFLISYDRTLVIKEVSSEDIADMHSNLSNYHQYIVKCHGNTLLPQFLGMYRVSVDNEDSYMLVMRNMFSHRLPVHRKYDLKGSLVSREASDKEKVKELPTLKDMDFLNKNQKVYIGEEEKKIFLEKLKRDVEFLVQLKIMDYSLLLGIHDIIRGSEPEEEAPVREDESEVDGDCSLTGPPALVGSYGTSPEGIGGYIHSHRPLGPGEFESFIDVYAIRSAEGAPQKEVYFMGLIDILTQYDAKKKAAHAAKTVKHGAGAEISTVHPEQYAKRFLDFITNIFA
Excerpt: as §1, §2, §3, §4, §5

[18] = target: T18, 384 kinases from the human genome (Homo sapiens, UniProt Q9Y3S1); settings: kinase WNK2 (Entrez WNK2)
T18 construct: purchased Eurofin/DiscoverX
Excerpt: as §1, §2, §3, §4, §5

[19] = target: T19, 384 kinases from the human genome (Homo sapiens, UniProt Q9Y463); settings: kinase DYRK1B (Entrez DYRK1B)
T19 construct: purchased Eurofin/DiscoverX
T19 sequence (Q9Y463 whole entry): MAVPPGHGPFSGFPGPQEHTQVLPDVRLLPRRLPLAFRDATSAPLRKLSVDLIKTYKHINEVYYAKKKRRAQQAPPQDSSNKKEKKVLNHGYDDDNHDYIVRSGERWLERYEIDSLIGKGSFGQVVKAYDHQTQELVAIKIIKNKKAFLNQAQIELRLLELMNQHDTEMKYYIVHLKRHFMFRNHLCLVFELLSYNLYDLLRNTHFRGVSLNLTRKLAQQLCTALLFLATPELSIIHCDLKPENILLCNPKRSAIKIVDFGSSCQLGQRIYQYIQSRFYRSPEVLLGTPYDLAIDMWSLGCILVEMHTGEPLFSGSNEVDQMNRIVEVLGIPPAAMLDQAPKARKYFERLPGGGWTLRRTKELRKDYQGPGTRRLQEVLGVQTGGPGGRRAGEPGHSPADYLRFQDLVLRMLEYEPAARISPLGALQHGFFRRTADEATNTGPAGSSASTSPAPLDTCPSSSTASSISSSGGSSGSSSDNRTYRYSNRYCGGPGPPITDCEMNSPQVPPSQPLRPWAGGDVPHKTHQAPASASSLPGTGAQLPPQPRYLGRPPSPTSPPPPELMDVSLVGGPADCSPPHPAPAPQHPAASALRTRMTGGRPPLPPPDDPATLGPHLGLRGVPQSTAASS
Excerpt: as §1, §2, §3, §4, §5

[20] = target: T20, 384 kinases from the human genome (Homo sapiens, UniProt Q9HAZ1); settings: kinase CLK4 (Entrez CLK4)
T20 construct: purchased Eurofin/DiscoverX
Excerpt: as §1, §2, §3, §4, §5

[21] = target: T21, 384 kinases from the human genome (Homo sapiens, UniProt Q16288); settings: kinase TRKC (Entrez NTRK3)
T21 construct: purchased Eurofin/DiscoverX
Excerpt: as §1, §2, §3, §4, §5

[22] = target: T22, 384 kinases from the human genome (Homo sapiens, UniProt Q6P3R8); settings: kinase NEK5 (Entrez NEK5)
T22 construct: purchased Eurofin/DiscoverX
Excerpt: as §1, §2, §3, §4, §5

[23] = target: T23, 384 kinases from the human genome (Homo sapiens, UniProt Q86YV6); settings: kinase MYLK4 (Entrez MYLK4)
T23 construct: purchased Eurofin/DiscoverX
T23 sequence (Q86YV6 whole entry): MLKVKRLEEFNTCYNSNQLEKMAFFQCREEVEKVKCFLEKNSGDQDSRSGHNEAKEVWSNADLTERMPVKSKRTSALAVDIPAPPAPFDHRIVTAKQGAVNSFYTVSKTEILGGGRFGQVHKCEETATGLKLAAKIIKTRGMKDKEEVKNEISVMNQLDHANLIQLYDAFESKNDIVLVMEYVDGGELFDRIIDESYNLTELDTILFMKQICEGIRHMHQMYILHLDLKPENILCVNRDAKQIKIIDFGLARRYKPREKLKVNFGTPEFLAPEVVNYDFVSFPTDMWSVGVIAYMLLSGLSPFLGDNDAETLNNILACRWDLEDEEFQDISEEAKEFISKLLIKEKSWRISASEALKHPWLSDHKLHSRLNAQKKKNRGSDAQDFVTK
Excerpt: as §1, §2, §3, §4, §5

[24] = target: T24, 384 kinases from the human genome (Homo sapiens, UniProt O14730); settings: kinase RIOK3 (Entrez RIOK3)
T24 construct: purchased Eurofin/DiscoverX
Excerpt: as §1, §2, §3, §4, §5

[25] = target: T25, 384 kinases from the human genome (Homo sapiens, UniProt P04626); settings: kinase ERBB2 (Entrez ERBB2)
T25 construct: purchased Eurofin/DiscoverX
T25 sequence (P04626 23-1255): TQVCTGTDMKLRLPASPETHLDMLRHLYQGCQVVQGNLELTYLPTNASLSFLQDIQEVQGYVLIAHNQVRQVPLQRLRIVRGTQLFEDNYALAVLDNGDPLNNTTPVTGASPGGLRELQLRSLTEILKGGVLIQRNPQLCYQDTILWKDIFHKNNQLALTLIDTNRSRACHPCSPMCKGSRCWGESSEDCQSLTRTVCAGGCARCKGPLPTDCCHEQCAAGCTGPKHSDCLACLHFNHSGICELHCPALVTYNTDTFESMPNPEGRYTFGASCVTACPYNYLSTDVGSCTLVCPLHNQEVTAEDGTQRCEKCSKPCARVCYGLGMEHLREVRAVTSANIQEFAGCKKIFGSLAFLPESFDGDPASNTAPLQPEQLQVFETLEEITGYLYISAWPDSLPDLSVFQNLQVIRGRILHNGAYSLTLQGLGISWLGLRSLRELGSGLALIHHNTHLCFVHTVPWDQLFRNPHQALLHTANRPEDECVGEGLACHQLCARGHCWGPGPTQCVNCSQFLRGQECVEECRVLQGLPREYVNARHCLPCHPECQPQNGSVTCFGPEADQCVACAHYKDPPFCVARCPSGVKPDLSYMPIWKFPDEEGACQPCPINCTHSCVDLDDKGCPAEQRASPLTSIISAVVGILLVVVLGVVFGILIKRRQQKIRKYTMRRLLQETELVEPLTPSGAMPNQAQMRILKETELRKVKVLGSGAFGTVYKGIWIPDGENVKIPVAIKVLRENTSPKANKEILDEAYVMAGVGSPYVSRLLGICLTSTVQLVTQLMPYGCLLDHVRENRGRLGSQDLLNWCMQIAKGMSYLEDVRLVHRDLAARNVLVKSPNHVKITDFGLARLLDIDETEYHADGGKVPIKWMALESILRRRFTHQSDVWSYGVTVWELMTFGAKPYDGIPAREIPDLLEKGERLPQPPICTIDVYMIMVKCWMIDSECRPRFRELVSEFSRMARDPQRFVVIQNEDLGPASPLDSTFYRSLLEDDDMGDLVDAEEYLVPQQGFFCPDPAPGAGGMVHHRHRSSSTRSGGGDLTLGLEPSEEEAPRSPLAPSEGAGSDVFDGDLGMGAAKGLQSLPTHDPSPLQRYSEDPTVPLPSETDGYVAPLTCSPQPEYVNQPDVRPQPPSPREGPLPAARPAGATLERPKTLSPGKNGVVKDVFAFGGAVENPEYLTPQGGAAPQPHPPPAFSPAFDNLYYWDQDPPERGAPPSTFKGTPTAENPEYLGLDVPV
Excerpt: as §1, §2, §3, §4, §5

[26] = target: T26, 384 kinases from the human genome (Homo sapiens, UniProt Q13627); settings: kinase DYRK1A (Entrez DYRK1A)
T26 construct: purchased Eurofin/DiscoverX
Excerpt: as §1, §2, §3, §4, §5

CC(C)C(=O)N1CCN(c2ccc(NC(=O)c3cc4ccccc4o3)cc2Cl)CC1 [Compound 21]
Percent Control [1]: 100%
Percent Control [2]: 76%
Percent Control [3]: 66%
Percent Control [4]: 100%
Percent Control [5]: 75%
Percent Control [6]: 99%
Percent Control [7]: 97%
Percent Control [8]: 87%
Percent Control [9]: 90%
Percent Control [10]: 87%
Percent Control [11]: 98%
Percent Control [12]: 87%
Percent Control [13]: 99%
Percent Control [14]: 98%
Percent Control [15]: 84%
Percent Control [16]: 100%
Percent Control [17]: 65%
Percent Control [18]: 100%
Percent Control [19]: 79%
Percent Control [20]: 79%
Percent Control [21]: 24%
Percent Control [22]: 74%
Percent Control [23]: 99%
Percent Control [24]: 100%
Percent Control [25]: 75%
Percent Control [26]: 98%
